Key:
wheat = experiment: Test B pre/postemergence wheat; format: in vivo, Triticum aestivum
Summary of the method: (§1)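 Test chemicals in a non-phytotoxic solvent mixture with surfactant were sprayed preemergence onto planted seeds and postemergence onto plants 2 to 18 cm tall (1- to 4-leaf stage). After twelve to sixteen days in a greenhouse, injury was visually rated against untreated controls from 0 (no effect) to 10 (complete control).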

corn = experiment: Test B pre/postemergence corn; format: in vivo, Zea mays
Summary of the method: as §1

bedstraw = experiment: Test B pre/postemergence bedstraw; format: in vivo, Galium aparine
Summary of the method: as §1

velvetleaf = experiment: Test B pre/postemergence velvetleaf; format: in vivo, Abutilon theophrasti
Summary of the method: as §1

purple nutsedge = experiment: Test B pre/postemergence purple nutsedge; format: in vivo, Cyperus rotundus
Summary of the method: as §1

wild oat = experiment: Test B pre/postemergence wild oat; format: in vivo, Avena fatua
Summary of the method: as §1

cocklebur = experiment: Test B pre/postemergence cocklebur; format: in vivo, Xanthium strumarium
Summary of the method: as §1

blackgrass = experiment: Test B pre/postemergence blackgrass; format: in vivo, Alopecurus myosuroides
Summary of the method: as §1

morningglory = experiment: Test B pre/postemergence morningglory; format: in vivo, Ipomoea hederacea
Summary of the method: as §1

pigweed = experiment: Test B pre/postemergence pigweed; format: in vivo, Amaranthus retroflexus
Summary of the method: as §1

surinam grass = experiment: Test B pre/postemergence surinam grass; format: in vivo, Brachiaria decumbens
Summary of the method: as §1

giant foxtail = experiment: Test B pre/postemergence giant foxtail; format: in vivo, Setaria faberii
Summary of the method: as §1

rape = experiment: Test B pre/postemergence rape; format: in vivo, Brassica napus
Summary of the method: as §1

soybean = experiment: Test B pre/postemergence soybean; format: in vivo, Glycine max
Summary of the method: as §1

crabgrass = experiment: Test B pre/postemergence crabgrass; format: in vivo, Digitaria sanguinalis
Summary of the method: as §1

[1] = Preemergence, Rate 62 g/ha, scale of 0 to 10 where 0 is no effect and 10 is complete control
[2] = Preemergence, Rate 250 g/ha, scale of 0 to 10 where 0 is no effect and 10 is complete control
[3] = Preemergence, Rate 500 g/ha, scale of 0 to 10 where 0 is no effect and 10 is complete control
[4] = Rate 62 g/ha, Postemergence, scale of 0 to 10 where 0 is no effect and 10 is complete control
[5] = Rate 125 g/ha, Postemergence, scale 0 to 10
[6] = Rate 125 g/ha, Preemergence, scale of 0 to 10 where 0 is no effect and 10 is complete control
[7] = Rate 500 g/ha, Postemergence, scale 0 to 10

C#CCn1c(=O)on(C(=O)N(c2ccc(F)cc2)C(C)C)c1=O [Compound 212]
8: Morningglory plant response rating (morningglory; [7]) | Plant response rating, Rape (rape; [3]) | Plant response rating (0 to 10; 0 is no effect, 10 is complete control), Crabgrass (crabgrass; Rate 250 g/ha, Postemergence)
4: Velvetleaf plant response rating (velvetleaf; [5]) | Blackgrass plant response rating (blackgrass; [1]) | Blackgrass plant response rating (blackgrass; [6]) | Plant response rating (0 to 10; 0 is no effect, 10 is complete control), Morningglory (morningglory; Rate 250 g/ha, Postemergence) | B. signalgrass plant response rating (surinam grass; Rate 125 g/ha, Postemergence, scale 0 (no effect) to 10 (complete control)) | Giant foxtail plant response rating (giant foxtail; [4]) | Giant foxtail plant response rating (giant foxtail; [6]) | Soybean plant response rating (soybean; [7]) | Crabgrass plant response rating (crabgrass; [6])
0: Wheat plant response rating (wheat; [1]) | Wheat plant response rating (wheat; [4]) | Wheat plant response rating (wheat; [5]) | Wheat plant response rating (wheat; [6]) | Plant response rating (0 to 10; 0 is no effect, 10 is complete control), Wheat (wheat; Rate 250 g/ha, Postemergence) | Corn plant response rating (corn; [1]) | Corn plant response rating (corn; [2]) | Plant response rating, Corn (corn; [3]) | Corn plant response rating (corn; [4]) | Corn plant response rating (corn; [5]) | Corn plant response rating (corn; [6]) | Plant response rating (0 to 10; 0 is no effect, 10 is complete control), Corn (corn; Rate 250 g/ha, Postemergence) | Corn plant response rating (corn; [7]) | Bedstraw plant response rating (bedstraw; [1]) | Bedstraw plant response rating (bedstraw; [2]) | Bedstraw plant response rating (bedstraw; [4]) | Bedstraw plant response rating (bedstraw; [5]) | Bedstraw plant response rating (bedstraw; [6]) | Nutsedge plant response rating (purple nutsedge; [1]) | Nutsedge plant response rating (purple nutsedge; [2]) | Plant response rating, Nutsedge (purple nutsedge; [3]) | Nutsedge plant response rating (purple nutsedge; [4]) | Nutsedge plant response rating (purple nutsedge; [5]) | Nutsedge plant response rating (purple nutsedge; [6]) | Plant response rating (0 to 10; 0 is no effect, 10 is complete control), Nutsedge (purple nutsedge; Rate 250 g/ha, Postemergence) | Nutsedge plant response rating (purple nutsedge; [7]) | Wild oats plant response rating (wild oat; [1]) | Wild oats plant response rating (wild oat; [4]) | Wild oats plant response rating (wild oat; [5]) | Plant response rating (0 to 10; 0 is no effect, 10 is complete control), Wild oats (wild oat; Rate 250 g/ha, Postemergence) | Cocklebur plant response rating (cocklebur; [1]) | Cocklebur plant response rating (cocklebur; [2]) | Plant response rating, Cocklebur (cocklebur; [3]) | Morningglory plant response rating (morningglory; [1]) | Morningglory plant response rating (morningglory; [2]) | Plant response rating, Morningglory (morningglory; [3]) | Morningglory plant response rating (morningglory; [6]) | Redroot pigweed plant response rating (pigweed; [4]) | B. signalgrass plant response rating (surinam grass; [1]) | Rape plant response rating (rape; [1]) | Rape plant response rating (rape; [4]) | Rape plant response rating (rape; [5]) | Rape plant response rating (rape; [6]) | Plant response rating (0 to 10; 0 is no effect, 10 is complete control), Rape (rape; Rate 250 g/ha, Postemergence) | Soybean plant response rating (soybean; [1]) | Soybean plant response rating (soybean; [2]) | Plant response rating, Soybean (soybean; [3]) | Soybean plant response rating (soybean; [6]) | Crabgrass plant response rating (crabgrass; [1])
5: Wheat plant response rating (wheat; [2]) | Velvetleaf plant response rating (velvetleaf; [2]) | Plant response rating, Velvetleaf (velvetleaf; [3]) | Plant response rating (0 to 10; 0 is no effect, 10 is complete control), Velvetleaf (velvetleaf; Rate 250 g/ha, Postemergence) | Cocklebur plant response rating (cocklebur; [7]) | Redroot pigweed plant response rating (pigweed; [5]) | B. signalgrass plant response rating (surinam grass; Preemergence, Rate 250 g/ha, scale 0 to 10, 0 is no effect, 10 is complete control) | Plant response rating, B. signalgrass (surinam grass; [3]) | Crabgrass plant response rating (crabgrass; [2]) | Plant response rating, Crabgrass (crabgrass; [3])
6: Blackgrass plant response rating (blackgrass; [4]) | Blackgrass plant response rating (blackgrass; [5]) | Plant response rating (0 to 10; 0 is no effect, 10 is complete control), Blackgrass (blackgrass; Rate 250 g/ha, Postemergence) | Giant foxtail plant response rating (giant foxtail; [5]) | Plant response rating (0 to 10; 0 is no effect, 10 is complete control), Giant foxtail (giant foxtail; Rate 250 g/ha, Postemergence) | Rape plant response rating (rape; [2]) | Crabgrass plant response rating (crabgrass; [4]) | Crabgrass plant response rating (crabgrass; [5])
10: Plant response rating, Bedstraw (bedstraw; [3]) | Redroot pigweed plant response rating (pigweed; [2]) | Plant response rating, Redroot pigweed (pigweed; [3]) | Plant response rating, Giant foxtail (giant foxtail; [3])
1: B. signalgrass plant response rating (surinam grass; [6]) | Soybean plant response rating (soybean; [4])
3: Velvetleaf plant response rating (velvetleaf; [4]) | Wild oats plant response rating (wild oat; [2]) | Morningglory plant response rating (morningglory; [5]) | Rape plant response rating (rape; [7]) | Plant response rating (0 to 10; 0 is no effect, 10 is complete control), Soybean (soybean; Rate 250 g/ha, Postemergence)
2: Plant response rating (0 to 10; 0 is no effect, 10 is complete control), Bedstraw (bedstraw; Rate 250 g/ha, Postemergence) | Velvetleaf plant response rating (velvetleaf; [1]) | Cocklebur plant response rating (cocklebur; [4]) | Cocklebur plant response rating (cocklebur; [5]) | Plant response rating (0 to 10; 0 is no effect, 10 is complete control), Cocklebur (cocklebur; Rate 250 g/ha, Postemergence) | Morningglory plant response rating (morningglory; [4]) | B. signalgrass plant response rating (surinam grass; [4]) | Giant foxtail plant response rating (giant foxtail; [1]) | Soybean plant response rating (soybean; [5])
9: Plant response rating, Blackgrass (blackgrass; [3]) | Redroot pigweed plant response rating (pigweed; [1]) | Redroot pigweed plant response rating (pigweed; [6]) | Giant foxtail plant response rating (giant foxtail; [2]) | Giant foxtail plant response rating (giant foxtail; [7]) | Crabgrass plant response rating (crabgrass; [7])
7: Plant response rating, Wheat (wheat; [3]) | Bedstraw plant response rating (bedstraw; [7]) | Plant response rating, Wild oats (wild oat; [3]) | Blackgrass plant response rating (blackgrass; [2]) | Blackgrass plant response rating (blackgrass; [7]) | Redroot pigweed plant response rating (pigweed; [7]) | Plant response rating (0 to 10; 0 is no effect, 10 is complete control), B. signalgrass (surinam grass; Rate 250 g/ha, Postemergence) | B. signalgrass plant response rating (surinam grass; Rate 500 g/ha, Postemergence, scale 0 to 10, 0 no effect, 10 complete control)
